Laboratory results from patent publication US20230355622A1, “METHODS OF CHEMOVACCINATION AGAINST PLASMODIUM INFECTIONS” (Merck Sharp & Dohme LLC, priority 2020, published 2023).

These molecules were tested on parasite (assay: Parasite LDH growth assay (Parasite Assay), antiparasite potency). Conditions: 72 h, parasite LDH growth assay, ring stage parasites, 72 hours incubation at 37° C.; read-out: EC50.
Assay type: cell-based
Procedure: Assessing Antiparasite Potency in a Parasite LDH Growth Assay (Parasite Assay)
The parasite stock was maintained at 4% haematocrit in RPMI-Hepes media buffered with sodium bicarbonate and supplemented with 5% heat inactivated human serum and 0.5% albumax.
On the day of assay set up, a blood smear of the parasite culture was Giemsa stained and counted. The parasitemia was adjusted to 0.7% rings and the haematocrit was diluted to 2% in RPMI-Hepes media buffered with sodium bicarbonate and supplemented with 5% heat inactivated human serum and 0.5% albumax. 30 ul of diluted parasites are then added into 10 ul of media+compound in pre-prepared Greiner TC assay plates. Parasite assay plates were placed in gassed humidified boxes in single layer and allowed to incubate at 37° C. for 72 hours. After 72 hours growth, assay plates are sealed with parafilm and frozen flat, in single file at −80° C. overnight. On the following day, assay plates are allowed to thaw at room temperature for 4 hours to which an LDH assay is performed to measure parasite growth.

Structure (SMILES) | EC50
CCC1(CC)CC(=O)N([C@@H]2CCCOc3ccc(C(=O)N[C@@H]4c5ccccc5OC(C)(C)[C@H]4O)cc32)C(=N)N1 [Example 248, (5R)-5-(4,4-diethyl-2-imino-6-oxo-hexahydropyrimidin-1-yl)-N-[(3S,4R)-3-hydroxy-2,2-dimethyl-chroman-4-yl]-2,3,4,5-tetrahydro-1-benzoxepine-7-carboxamide] | 0.8 nM
CCC1(CC)CC(=O)N([C@@H]2CCOc3c(Cl)cc(C(=O)N[C@@H]4c5ccccc5OC(C)(C)[C@H]4O)cc32)C(=N)N1 [Example 29A, (R)-8-chloro-4-(4,4-diethyl-2-imino-6-oxotetrahydropyrimidin-1(2H)-yl)-N-((3S,4R)-3-hydroxy-2,2-dimethylchroman-4-yl)chromane-6-carboxamide] | 1 nM
CCC1(CC)CC(=O)N([C@@H]2CCOc3ccc(C(=O)N[C@@H]4c5ccccc5C5(CC5)[C@H]4O)cc32)C(=N)N1 [Example 154, (4R)-4-(4,4-diethyl-2-imino-6-oxo-hexahydropyrimidin-1-yl)-N-[(1′R,2′R)-2′-hydroxyspiro[cyclopropane-1,3′-indane]-1′-yl]chromane-6-carboxamide] | 0.7 nM
CC1(C)CC(=O)N([C@H]2c3cc(C(=O)N[C@@H]4c5ccccc5OC(C)(C)[C@H]4O)ccc3OC2(C)C)C(=N)N1 [Example 182, (3S)-N-[(3S,4R)-3-hydroxy-2,2-dimethyl-chroman-4-yl]-3-(2-imino-4,4-dimethyl-6-oxo-hexahydropyrimidin-1-yl)-2,2-dimethyl-3H-benzofuran-5-carboxamide] | 6.1 nM
CC(C)[C@]1(C)CC(=O)N([C@@H]2CCOc3ccc(C(=O)NC4c5ccccc5OC(C)(C)C4O)cc32)C(=N)N1 (single isomer, unassigned) [Example 11A] | 0.9 nM
CC(C)[C@]1(C)CC(=O)N([C@@H]2CCOc3ccc(C(=O)N[C@H]4CC(C)(C)Oc5ccccc54)cc32)C(=N)N1 [Example 10A, (R)-N-((S)-2,2-dimethylchroman-4-yl)-4-((S)-2-imino-4-isopropyl-4-methyl-6-oxotetrahydropyrimidin-1(2H)-yl)chromane-6-carboxamide] | 0.5 nM
CCC1(CC)CC(=O)N([C@@H]2CC(COC)Oc3ccc(C(=O)N[C@@H]4c5ccccc5OC(C)(C)[C@H]4O)cc32)C(=N)N1 (stereo partly drawn) [Example 18A, (4R)-4-(4,4-diethyl-2-imino-6-oxotetrahydropyrimidin-1(2H)-yl)-N-((3S,4R)-3-hydroxy-2,2-dimethylchroman-4-yl)-2-(methoxymethyl)chromane-6-carboxamide] | 0.8 nM
CCC1(CC)CC(=O)N([C@H]2c3cc(C(=O)N[C@H]4CC(C)(C)Oc5ccccc54)ccc3OC[C@@H]2OC)C(=N)N1 [Example 68A, (3R,4S)-4-(4,4-diethyl-2-imino-6-oxotetrahydropyrimidin-1(2H)-yl)-N-((S)-2,2-dimethylchroman-4-yl)-3-methoxychromane-6-carboxamide] | 1 nM
C[C@@H]1C[C@@H](N2C(=N)NC(C)(C)CC2=O)c2cc(C(=O)N[C@@H]3c4ccccc4OC[C@@]3(C)O)ccc21 [Example 104, (1R,3R)-N-[(3S,4R)-3-hydroxy-3-methyl-chroman-4-yl]-3-(2-imino-4,4-dimethyl-6-oxo-hexahydropyrimidin-1-yl)-1-methyl-indane-5-carboxamide] | 5 nM
CCC1(CC)CC(=O)N([C@@H]2CCOc3ccc(C(=O)N[C@H]4CC(C)(C)Oc5ccc(Br)cc54)cc32)C(=N)N1 [Example 14A, (R)-N-((S)-6-bromo-2,2-dimethylchroman-4-yl)-4-(4,4-diethyl-2-imino-6-oxotetrahydropyrimidin-1(2H)-yl)chromane-6-carboxamide] | 1 nM
CC[C@]1(C)CC(=O)N([C@H]2c3cc(C(=O)N[C@@H]4c5ccccc5OC(C)(C)[C@H]4O)ccc3OC[C@@H]2COC)C(=N)N1 [Example 277, (3S,4R)-4-[(4R)-4-ethyl-2-imino-4-methyl-6-oxo-hexahydropyrimidin-1-yl]-N-[(3S,4R)-3-hydroxy-2,2-dimethyl-chroman-4-yl]-3-(methoxymethyl)chromane-6-carboxamide] | 0.4 nM
CCC1(CC)CC(=O)N([C@@H]2CCOc3ccc(C(=O)N[C@@H]4c5cc(Cl)ccc5OC(C)(C)[C@H]4O)cc32)C(=N)N1 [Example 19A, (R)-N-((3S,4R)-6-chloro-3-hydroxy-2,2-dimethylchroman-4-yl)-4-(4,4-diethyl-2-imino-6-oxotetrahydropyrimidin-1(2H)-yl)chromane-6-carboxamide] | 0.3 nM
CCC1C[C@@H](N2C(=N)NC(CC)(CC)CC2=O)c2cc(C(=O)NC3c4ccccc4OC(C)(C)C3O)ccc2O1 (single isomer, unassigned) [Example 13A] | 0.8 nM
CCC1(CC)CC(=O)N([C@@H]2Cc3ccc(C(=O)N[C@@H]4c5ccccc5C[C@H]4O)cc32)C(=N)N1 [Example 83, (8R)-8-(4,4-diethyl-2-imino-6-oxo-hexahydropyrimidin-1-yl)-N-[(1R,2R)-2-hydroxyindan-1-yl]bicyclo[4.2.0]octa-1(6),2,4-triene-3-carboxamide] | 20 nM
CCC1(CC)CC(=O)N([C@@H]2CCOc3ccc(C(=O)N[C@@H]4c5ccccc5OC(C)(C)[C@H]4O)nc32)C(=N)N1 [Example 30A, (R)-4-(4,4-diethyl-2-imino-6-oxotetrahydropyrimidin-1(2H)-yl)-N-((3S,4R)-3-hydroxy-2,2-dimethylchroman-4-yl)-3,4-dihydro-2H-pyrano[3,2-b]pyridine-6-carboxamide] | 0.8 nM
CCC1(CC)CC(=O)N(C2CCCc3ccc(C(=O)N[C@@H]4c5ccccc5OC[C@@]4(C)O)cc32)C(=N)N1 (stereo partly drawn) [Example 161, 8-(4,4-diethyl-2-imino-6-oxotetrahydropyrimidin-1(2H)-yl)-N-((3S,4R)-3-hydroxy-3-methylchroman-4-yl)-5,6,7,8-tetrahydronaphthalene-2-carboxamide] | 0.8 nM
CCC1(CC)CC(=O)N([C@H]2c3cc(C(=O)N[C@@H]4c5ccccc5C[C@@]4(C)O)ccc3OC[C@H]2COC)C(=N)N1 [Example 235, (3R,4R)-4-(4,4-diethyl-2-imino-6-oxo-hexahydropyrimidin-1-yl)-N-[(1R,2R)-2-hydroxy-2-methyl-indan-1-yl]-3-(methoxymethyl)chromane-6-carboxamide] | 0.7 nM
CC[C@]1(C)CC(=O)N([C@@H]2CCc3ccc(C(=O)N[C@@H]4c5ccccc5OC(C)(C)[C@H]4O)cc32)C(=N)N1 [Example 121, (3R)-3-[(4R)-4-ethyl-2-imino-4-methyl-6-oxo-hexahydropyrimidin-1-yl]-N-[(3S,4R)-3-hydroxy-2,2-dimethyl-chroman-4-yl]indane-5-carboxamide] | 0.6 nM
CCC1(CC)CC(=O)N([C@@H]2C[C@@H](C)Oc3ccc(C(=O)N[C@@H]4c5ccccc5OC(C)(C)[C@H]4O)cc32)C(=N)N1 [Example 246, (2R,4R)-4-(4,4-diethyl-2-imino-6-oxo-hexahydropyrimidin-1-yl)-N-[(3S,4R)-3-hydroxy-2,2-dimethyl-chroman-4-yl]-2-methyl-chromane-6-carboxamide] | 2 nM
CCC1(CC)CC(=O)N(C2CCOc3ccc(C(=O)N[C@@H]4c5ccccc5OC(C)(C)[C@H]4O)cc32)C(=N)N1 (stereo partly drawn) [Example 2A, 4-(4,4-diethyl-2-imino-6-oxotetrahydropyrimidin-1(2H)-yl)-N-((3S,4R)-3-hydroxy-2,2-dimethylchroman-4-yl)chroman-6-carboxamide] | 0.5 nM
CCC1(CC)CC(=O)N([C@H]2c3cc(C(=O)N[C@@H]4c5ccccc5C[C@H]4O)ccc3OC[C@H]2C)C(=N)N1 [Example 118, (3S,4R)-4-(4,4-diethyl-2-imino-6-oxo-hexahydropyrimidin-1-yl)-N-[(1R,2R)-2-hydroxyindan-1-yl]-3-methyl-chromane-6-carboxamide] | 0.9 nM
CCC1(CC)CC(=O)N([C@H]2c3cc(C(=O)N[C@@H]4c5ccccc5OC(C)(C)[C@H]4O)ccc3OC[C@@H]2C)C(=N)N1 [Example 240, (3R,4R)-4-(4,4-diethyl-2-imino-6-oxo-hexahydropyrimidin-1-yl)-N-[(3S,4R)-3-hydroxy-2,2-dimethyl-chroman-4-yl]-3-methyl-chromane-6-carboxamide] | 0.6 nM

Same assay, conditions: parasite LDH growth assay, ring stage parasites, 72 hours incubation at 37° C.; read-out: EC50

Structure (SMILES) | EC50
CCC1(CC)CC(=O)N([C@@H]2CC(C)(C)Oc3ccc(C(=O)N[C@@H]4c5cc(F)ccc5OC(C)(C)[C@H]4O)cc32)C(=N)N1 [Example 53A, (R)-4-(4,4-diethyl-2-imino-6-oxotetrahydropyrimidin-1(2H)-yl)-N-((3S,4R)-6-fluoro-3-hydroxy-2,2-dimethylchroman-4-yl)-2,2-dimethylchromane-6-carboxamide] | 0.3 nM
CCC1(CC)CC(=O)N([C@@H]2CC(C)(C)Oc3ccc(C(=O)N[C@@H]4c5ccccc5CC4(C)O)cc32)C(=N)N1 (stereo partly drawn) [Example 42A, (4R)-4-(4,4-diethyl-2-imino-6-oxotetrahydropyrimidin-1(2H)-yl)-N-((1R)-2-hydroxy-2-methyl-2,3-dihydro-1H-inden-1-yl)-2,2-dimethylchromane-6-carboxamide] | 1 nM
CCC1C[C@@H](N2C(=N)NC(CC)(CC)CC2=O)c2cc(C(=O)N[C@@H]3c4ccccc4C[C@H]3O)ccc2O1 (stereo partly drawn) [Example 9A, (4R)-4-(4,4-diethyl-2-imino-6-oxotetrahydropyrimidin-1(2H)-yl)-2-ethyl-N-((1R,2R)-2-hydroxy-2,3-dihydro-1H-inden-1-yl)chromane-6-carboxamide] | 0.9 nM
CCC1(CC)CC(=O)N([C@@H]2CCOc3ccc(C(=O)NC4c5ccccc5OC4(C)CO)cc32)C(=N)N1 (stereo partly drawn) [Example 176B, (4R)-4-(4,4-diethyl-2-imino-6-oxo-hexahydropyrimidin-1-yl)-N-[2-(hydroxymethyl)-2-methyl-3H-benzofuran-3-yl]chromane-6-carboxamide] | 7.8 nM
